Data as given in ChEMBL document CHEMBL1156502, “Stabilized immune modulatory RNA compounds as agonists of Toll-like receptors 7 and 8” (Proc Natl Acad Sci U S A, 2007).
Activity calls are given as the source filed them. The rule behind the calls is not given here.

Assays:
PBMC [1] = test: Induction of IL12 secretion in human PBMC after 24 hrs by Luminex Multiplex assay; type: functional, cell-based
PBMC [2] = test: Induction of IFNalpha secretion in human PBMC after 24 hrs by Luminex Multiplex assay; type: functional, cell-based
PBMC [3] = test: Induction of IFN-gamma secretion in human PBMC after 24 hrs by Luminex Multiplex assay; type: functional, cell-based
[4] = Stability in 1% human serum assessed as full length product after 10 mins; type: ADME, cell-free; conditions: read-out: Stability
[5] = molecular target: T1, Toll-like receptor 8 (Homo sapiens) (UniProt Q9NR97); test: Activation of human TLR8 expressed in HEK293 cells assessed as increase in NF-kappaB activation at 100 ug/ml by SEAP assay; type: cell-based
T1 sequence (whole entry): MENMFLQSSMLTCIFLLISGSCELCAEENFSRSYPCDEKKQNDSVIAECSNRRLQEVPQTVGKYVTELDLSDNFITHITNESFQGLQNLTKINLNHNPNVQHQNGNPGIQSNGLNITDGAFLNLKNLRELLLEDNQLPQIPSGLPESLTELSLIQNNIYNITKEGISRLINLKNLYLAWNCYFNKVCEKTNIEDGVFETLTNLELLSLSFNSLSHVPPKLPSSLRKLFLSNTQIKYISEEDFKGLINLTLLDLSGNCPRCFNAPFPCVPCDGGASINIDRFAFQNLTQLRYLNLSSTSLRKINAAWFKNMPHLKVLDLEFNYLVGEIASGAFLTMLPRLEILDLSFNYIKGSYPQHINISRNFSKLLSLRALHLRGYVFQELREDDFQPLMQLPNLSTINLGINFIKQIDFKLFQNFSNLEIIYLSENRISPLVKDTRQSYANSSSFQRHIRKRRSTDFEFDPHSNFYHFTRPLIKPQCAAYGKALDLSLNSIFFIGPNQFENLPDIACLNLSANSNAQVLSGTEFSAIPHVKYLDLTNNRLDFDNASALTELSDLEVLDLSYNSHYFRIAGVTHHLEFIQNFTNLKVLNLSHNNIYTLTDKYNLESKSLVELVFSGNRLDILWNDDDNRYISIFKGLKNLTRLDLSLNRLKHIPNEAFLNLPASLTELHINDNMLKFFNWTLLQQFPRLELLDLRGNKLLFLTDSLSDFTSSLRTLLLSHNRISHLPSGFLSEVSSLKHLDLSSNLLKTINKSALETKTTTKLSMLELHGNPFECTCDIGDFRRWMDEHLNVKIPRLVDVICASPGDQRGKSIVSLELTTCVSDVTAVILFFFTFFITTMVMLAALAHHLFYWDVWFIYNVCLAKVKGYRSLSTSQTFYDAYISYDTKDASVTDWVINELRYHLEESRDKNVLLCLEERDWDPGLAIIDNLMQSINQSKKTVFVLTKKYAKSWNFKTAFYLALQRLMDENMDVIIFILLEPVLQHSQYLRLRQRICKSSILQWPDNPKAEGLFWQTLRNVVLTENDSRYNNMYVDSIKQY

[6] = molecular target: T2, Toll-like receptor 7 (Homo sapiens) (UniProt Q9NYK1); test: Activation of human TLR7 expressed in HEK293 cells assessed as increase in NF-kappaB activation at 100 ug/ml by SEAP assay; type: cell-based
T2 sequence (whole entry): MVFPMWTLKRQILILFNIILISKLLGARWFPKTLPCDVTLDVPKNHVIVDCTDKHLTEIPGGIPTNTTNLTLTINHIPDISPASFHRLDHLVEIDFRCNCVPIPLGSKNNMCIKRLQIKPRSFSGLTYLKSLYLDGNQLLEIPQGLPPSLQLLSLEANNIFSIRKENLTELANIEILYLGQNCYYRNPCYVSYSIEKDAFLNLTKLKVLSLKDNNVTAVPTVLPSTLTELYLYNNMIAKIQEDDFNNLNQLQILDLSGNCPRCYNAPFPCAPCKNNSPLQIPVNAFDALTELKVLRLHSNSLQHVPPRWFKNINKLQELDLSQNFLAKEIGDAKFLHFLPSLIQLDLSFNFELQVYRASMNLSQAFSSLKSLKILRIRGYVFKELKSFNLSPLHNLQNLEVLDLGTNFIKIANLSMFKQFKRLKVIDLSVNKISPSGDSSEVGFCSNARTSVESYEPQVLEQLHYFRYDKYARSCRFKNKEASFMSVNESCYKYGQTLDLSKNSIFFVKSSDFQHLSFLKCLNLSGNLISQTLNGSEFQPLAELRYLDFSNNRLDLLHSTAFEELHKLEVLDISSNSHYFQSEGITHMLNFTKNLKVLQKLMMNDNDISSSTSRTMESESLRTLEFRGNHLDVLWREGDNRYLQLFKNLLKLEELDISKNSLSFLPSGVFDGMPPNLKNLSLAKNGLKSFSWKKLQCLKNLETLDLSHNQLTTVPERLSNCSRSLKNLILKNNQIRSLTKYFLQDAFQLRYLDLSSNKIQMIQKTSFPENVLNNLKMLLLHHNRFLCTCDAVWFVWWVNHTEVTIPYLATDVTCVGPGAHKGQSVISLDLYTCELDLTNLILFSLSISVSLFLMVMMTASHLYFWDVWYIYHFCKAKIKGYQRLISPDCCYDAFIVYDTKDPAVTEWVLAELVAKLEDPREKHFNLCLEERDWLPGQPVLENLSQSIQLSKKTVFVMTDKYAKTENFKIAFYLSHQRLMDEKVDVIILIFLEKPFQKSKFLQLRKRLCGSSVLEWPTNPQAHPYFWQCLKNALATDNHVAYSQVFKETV

PBMC [7] = test: Induction of IL1-beta secretion in human PBMC after 24 hrs by Luminex Multiplex assay; type: functional, cell-based
PBMC [8] = test: Induction of IL2R secretion in human PBMC after 24 hrs by Luminex Multiplex assay; type: functional, cell-based
PBMC [9] = test: Induction of IL10 secretion in human PBMC after 24 hrs by Luminex Multiplex assay; type: functional, cell-based

remaining at 10 min [4]: 56%
Activity [5]: Active
Activity [6]: inactive
SMILES: Nc1ccn([C@@H]2O[C@H](COP(O)(=S)O[C@H]3[C@@H](O)[C@H](n4ccc(=O)[nH]c4=O)O[C@@H]3COP(O)(=S)O[C@H]3[C@@H](O)[C@H](n4ccc(=O)[nH]c4=O)O[C@@H]3COP(O)(=S)O[C@H]3[C@@H](O)[C@H](n4ccc(N)nc4=O)O[C@@H]3COP(O)(=S)O[C@H]3[C@@H](O)[C@H](n4cnc5c(=O)[nH]c(N)nc54)O[C@@H]3COP(O)(=S)O[C@H]3[C@@H](O)[C@H](n4ccc(=O)[nH]c4=O)O[C@@H]3COP(O)(=S)O[C@H]3[C@@H](O)[C@H](n4ccc(N)nc4=O)O[C@@H]3COP(O)(=S)O[C@H]3[C@@H](O)[C@H](n4cnc5c(=O)[nH]c(N)nc54)O[C@@H]3COP(O)(=S)O[C@H]3[C@@H](O)[C@H](n4ccc(=O)[nH]c4=O)O[C@@H]3CO)[C@@H](OP(O)(=S)OC[C@H]3O[C@@H](n4ccc(=O)[nH]c4=O)[C@H](O)[C@@H]3OP(O)(=S)OC[C@H]3O[C@@H](n4cnc5c(=O)[nH]c(N)nc54)[C@H](O)[C@@H]3OP(O)(=S)OCC(O)COP(O)(=S)O[C@H]3[C@@H](O)[C@H](n4cnc5c(=O)[nH]c(N)nc54)O[C@@H]3COP(O)(=S)O[C@H]3[C@@H](O)[C@H](n4ccc(=O)[nH]c4=O)O[C@@H]3COP(O)(=S)O[C@H]3[C@@H](O)[C@H](n4ccc(N)nc4=O)O[C@@H]3COP(O)(=S)O[C@H]3[C@@H](O)[C@H](n4ccc(=O)[nH]c4=O)O[C@@H]3COP(O)(=S)O[C@H]3[C@@H](O)[C@H](n4ccc(=O)[nH]c4=O)O[C@@H]3COP(O)(=S)O[C@H]3[C@@H](O)[C@H](n4ccc(N)nc4=O)O[C@@H]3COP(O)(=S)O[C@H]3[C@@H](O)[C@H](n4cnc5c(=O)[nH]c(N)nc54)O[C@@H]3COP(O)(=S)O[C@H]3[C@@H](O)[C@H](n4ccc(=O)[nH]c4=O)O[C@@H]3COP(O)(=S)O[C@H]3[C@@H](O)[C@H](n4ccc(N)nc4=O)O[C@@H]3COP(O)(=S)O[C@H]3[C@@H](O)[C@H](n4cnc5c(=O)[nH]c(N)nc54)O[C@@H]3COP(O)(=S)O[C@H]3[C@@H](O)[C@H](n4ccc(=O)[nH]c4=O)O[C@@H]3CO)[C@H]2O)c(=O)n1 (some centres undefined)
Activity (PBMC [1]): Dose-dependent effect
Activity (PBMC [2]): Dose-dependent effect
Activity (PBMC [3]): Dose-dependent effect
Activity (PBMC [7]): Dose-dependent effect
Activity (PBMC [8]): Dose-dependent effect
Activity (PBMC [9]): Dose-dependent effect
